Read-outs that look alike come from different tables or passages of the source.
Experiments:
Assay type in all cases: cell-based
CCNE1 = biological target: T1, CCNE1 (Homo sapiens, UniProt P24864); assay: HiBit Assay Protocol for CCNE1 (HIBIT protein quantification, degradation); details: HEK293-CCNE1-Hibit cells, compound treatment for 6 hours
T1 construct: host or cells: HEK293-CCNE1-Hibit
Summary of the method: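 Degradation readout: lytic Nano-Glo HiBiT luminescence after 6 h exposure of HEK293-CCNE1-HiBiT cells to 10-point, 3-fold serial dilutions. Signal was scaled between medium-only and DMSO-treated wells, and DC50 came from curve fits.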

CDK9 = biological target: T2, CDK9 (Homo sapiens, UniProt P50750); assay: HiBit Assay Protocol for CDK9 (HIBIT protein quantification, degradation); details: HEK293-CDK9-Hibit cells, compound treatment for 6 hours; for Dmax: read-out: CDK9 HIBIT Protein Quantification Maximum
T2 construct: host or cells: HEK293-CDK9-Hibit
T2 sequence (P50750 whole entry): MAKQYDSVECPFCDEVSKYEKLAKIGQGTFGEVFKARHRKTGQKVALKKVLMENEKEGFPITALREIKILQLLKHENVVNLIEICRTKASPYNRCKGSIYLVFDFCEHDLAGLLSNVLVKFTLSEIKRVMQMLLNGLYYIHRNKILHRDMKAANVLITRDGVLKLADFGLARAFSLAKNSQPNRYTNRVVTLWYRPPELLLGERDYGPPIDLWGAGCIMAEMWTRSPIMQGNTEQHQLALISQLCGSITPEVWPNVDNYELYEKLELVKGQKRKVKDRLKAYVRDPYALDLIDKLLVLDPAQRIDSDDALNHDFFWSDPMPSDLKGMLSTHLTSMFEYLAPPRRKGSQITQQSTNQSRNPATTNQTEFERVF
Summary of the method: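 Degradation read-out: luminescence after lytic HiBiT/LgBiT detection in HEK293-CDK9-HiBiT cells exposed 6 h to 10-point, 3-fold compound dilutions. Signal scaled between 0.1% DMSO-treated cells and medium alone; DC50 fitted from the curve.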

CDK2 = biological target: T3, CDK2 (Homo sapiens, UniProt P24941); assay: HiBit Assay Protocol for CDK2 (HIBIT protein quantification, degradation); details: HEK293-CDK2-Hibit cells, compound treatment for 6 hours; for DC50: ABS DC50
T3 construct: host or cells: HEK293-CDK2-Hibit
Summary of the method: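 DC50 comes from a fitted curve of remaining CDK2-HiBiT luminescence, referenced to DMSO-treated cells and medium-only wells. HEK293-CDK2-HiBiT cells, plated the previous night, received compounds in a 10-point, 3-fold series for 6 h before lysis with LgBiT-containing Nano-Glo HiBiT reagent.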

T1 sequence (P24864 whole entry): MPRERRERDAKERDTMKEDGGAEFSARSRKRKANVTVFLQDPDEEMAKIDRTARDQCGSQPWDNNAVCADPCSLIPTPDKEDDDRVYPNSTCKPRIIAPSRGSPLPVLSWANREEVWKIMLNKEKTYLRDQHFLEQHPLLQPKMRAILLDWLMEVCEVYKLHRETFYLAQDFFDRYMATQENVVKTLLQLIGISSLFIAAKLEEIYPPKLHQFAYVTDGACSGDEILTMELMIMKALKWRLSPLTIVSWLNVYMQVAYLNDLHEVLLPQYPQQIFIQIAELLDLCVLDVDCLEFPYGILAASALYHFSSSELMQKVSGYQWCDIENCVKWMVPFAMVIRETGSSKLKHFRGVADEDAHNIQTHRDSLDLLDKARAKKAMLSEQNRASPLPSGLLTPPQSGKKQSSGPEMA

CCNE1 HIBIT Protein Quantification Maximum (CCNE1) | Dmax (CDK9; 6 h) | CDK2 HIBIT Protein Quantification Maximum (CDK2) | DC50 (CDK2) | DC50 (CDK9; ABS DC50) | Compound | Dmax (CDK9)
15% | -3% | 27% |  |  | CC1CCCC1N1C(=O)C2(CC2)c2cnc(NC3CCN(S(=O)(=O)N4CC5(CCN(C(=O)Cc6cccc7c6n(C)c(=O)n7C6CCC(=O)NC6=O)CC5)C4)CC3)nc21 (stereo not drawn) [Compound 15] | 
18% | 17% | 29% |  |  | CC1CCCC1N1C(=O)C2(CC2)c2cnc(NC3CCN(S(=O)(=O)N4CCC5(CCCN5C(=O)CCCc5ccc6c(c5)n(C)c(=O)n6C5CCC(=O)NC5=O)C4)CC3)nc21 (stereo not drawn) [Compound 64] | 
18% | 10% | 44% |  |  | CC1CCCC1N1C(=O)C2(CC2)c2cnc(NC3CCN(S(=O)(=O)N4CCC5(CCN(C(=O)CCCCCCCc6cccc7c6n(C)c(=O)n7C6CCC(=O)NC6=O)C5)C4)CC3)nc21 (stereo not drawn) [Compound 47] | 
43% | 27% | 62% | 2.82 nM |  | Cn1nc(N2CCC(=O)NC2=O)c2ccc(C3CCN(CC4CCCN(S(=O)(=O)N5CCC(Nc6ncc7c(n6)N([C@@H]6CCC[C@@H](O)C6)C(=O)C76CC6)CC5)C4)CC3)cc21 (stereo partly drawn) [Compound 186, 1-[6-(1-{[1-(4-{7′-[(1R,3R)-3-Hydroxycyclohexyl]-6′-oxospiro[cyclopropane-1,5′-pyrrolo[2,3-d]pyrimidin]-2′-ylamino}piperidin-1-ylsulfonyl)piperidin-3-yl]methyl}piperidin-4-yl)-1-methylindazol-3-yl]-1,3-diazinane-2,4-dione] | 
47% | 8% | 52% | 92 nM |  | O=C1CCC(N2Cc3cc(C4CN(Cc5cccc(S(=O)(=O)N6CCC(Nc7ncc8c(n7)N([C@@H]7CCC[C@@H](O)C7)C(=O)C87CC7)CC6)c5)C4)ccc3C2=O)C(=O)N1 (stereo partly drawn) [Compound 123] | 
8% | 66% | 62% | 34 nM | 6.53 nM | CC1CCCC1N1C(=O)C2(CC2)c2cnc(NC3CCN(S(=O)(=O)N4CC(N(C)C(=O)CCCCCCCCCc5cccc6c5n(C)c(=O)n6C5CCC(=O)NC5=O)C4)CC3)nc21 (stereo not drawn) [Compound 49] | 
4% | 9% | 30% |  |  | CC1CCCC1N1C(=O)C2(CC2)c2cnc(NC3CCN(S(=O)(=O)N4CC5(CCCCN5C(=O)CCCc5ccc6c(c5)n(C)c(=O)n6C5CCC(=O)NC5=O)C4)CC3)nc21 (stereo not drawn) [Compound 65] | 
8% | 8% | 13% |  |  | CC1CCCC1N1C(=O)C2(CC2)c2cnc(NC3CCN(S(=O)(=O)N4CC5C4CCN5C(=O)CCCc4ccc5c(c4)n(C)c(=O)n5C4CCC(=O)NC4=O)CC3)nc21 (stereo not drawn) [Compound 69] | 
16% | 17% | 37% |  |  | CC1CCCC1N1C(=O)C2(CC2)c2cnc(NC3CCN(S(=O)(=O)N4CC5(CCCN(C(=O)CCCCCCCCCc6cccc7c6n(C)c(=O)n7C6CCC(=O)NC6=O)C5)C4)CC3)nc21 (stereo not drawn) [Compound 50] | 
16% | 21% | 6% |  |  | CC1CCCC1N1C(=O)C2(CC2)c2cnc(NC3CCN(S(=O)(=O)N4CC5CN(C(=O)CCCCCc6ccc7c(c6)n(C)c(=O)n7C6CCC(=O)NC6=O)CC54)CC3)nc21 (stereo not drawn) [Compound 79] | 
13% | 16% | 29% |  |  | CC1CCCC1N1C(=O)C2(CC2)c2cnc(NC3CCN(S(=O)(=O)N4CC5(CCN(C(=O)CCCCCCCc6ccc7c(c6)n(C)c(=O)n7C6CCC(=O)NC6=O)CC5)C4)CC3)nc21 (stereo not drawn) [Compound 83] | 
48% | 9% | 90% | 21.9 nM |  | C[C@@H]1CN(c2ccc3c(N4CCC(=O)NC4=O)nn(C)c3c2)CCN1[C@H](C)c1cccc(S(=O)(=O)N2CC[C@H](Nc3ncc4c(n3)N([C@@H]3CCC[C@@H](O)C3)C(=O)C43CC3)[C@H](F)C2)c1 [Compound 191, 1-(6-((R)-4-((R)-1-(3-(((3R,4S)-3-Fluoro-4-((7′-((1R,3R)-3-hydroxycyclohexyl)-6′-oxo-6′,7′-dihydrospiro[cyclopropane-1,5′-pyrrolo[2,3-d]pyrimidin]-2′-yl)amino)piperidin-1-yl)sulfonyl)phenyl)ethyl)-3-methylpiperazin-1-yl)-1-methyl-1H-indazol-3-yl)dihydropyrimidine-2,4(1H,3H)-dione] | 
32% | 15% | 70% | 3.77 nM |  | Cc1cc(CN2CCC(c3ccc4c(N5CCC(=O)NC5=O)nn(C)c4c3)CC2)cc(S(=O)(=O)N2CCC(Nc3ncc4c(n3)N([C@@H]3CCC[C@@H](O)C3)C(=O)C43CC3)CC2)c1 [Compound 167, 1-[6-(1-{[3-(4-{7′-[(1R,3R)-3-Hydroxycyclohexyl]-6′-oxospiro[cyclopropane-1,5′-pyrrolo[2,3-d]pyrimidin]-2′-ylamino}piperidin-1-ylsulfonyl)-5-methylphenyl]methyl}piperidin-4-yl)-1-methylindazol-3-yl]-1,3-diazinane-2,4-dione] | 
33% | 15% | 85% | 10.4 nM |  | CC(C)[C@@H]1CN([C@H](C)c2cccc(S(=O)(=O)N3CC[C@H](Nc4ncc5c(n4)N([C@@H]4CCC[C@@H](O)C4)C(=O)C54CC4)[C@H](F)C3)c2)CCN1c1ccc2c(N3CCC(=O)NC3=O)nn(C)c2c1 [Compound 204] | 
25% | 15% | 29% |  |  | CC1CCCC1N1C(=O)C2(CC2)c2cnc(NC3CCN(S(=O)(=O)N4CCC5(CCCN5C(=O)CCCc5cccc6c5n(C)c(=O)n6C5CCC(=O)NC5=O)C4)CC3)nc21 (stereo not drawn) [Compound 25] | 
49% | 17% | 74% | 4.05 nM |  | Cn1nc(N2CCC(=O)NC2=O)c2ccc(C3CCN(Cc4cccc(S(=O)(=O)N5CCC(Nc6ncc7c(n6)N([C@@H]6CCC[C@@H](O)C6)C(=O)C76CC6)CC5)c4F)CC3)cc21 [Compound 172] | 
14% | 8% | 19% |  |  | Cn1nc(N2CCC(=O)NC2=O)c2ccc(C3CCN(Cc4cccc(S(=O)(=O)N5CC[C@@H](Nc6ncc7c(n6)N([C@@H]6CCC[C@@H](O)C6)C(=O)C76CC6)[C@@H](F)C5)c4)CC3)cc21 [Compound 155, 1-{6-[1-({3-[(3S,4R)-3-Fluoro-4-{7′-[(1R,3R)-3-hydroxycyclohexyl]-6′-oxospiro[cyclopropane-1,5′-pyrrolo[2,3-d]pyrimidin]-2′-ylamino}piperidin-1-ylsulfonyl]phenyl}methyl)piperidin-4-yl]-1-methylindazol-3-yl}-1,3-diazinane-2,4-dione] | 
25% | 22% | 28% |  |  | CC1CCCC1N1C(=O)C2(CC2)c2cnc(NC3CCN(S(=O)(=O)N4CC5(CCCN(C(=O)CCCCc6ccc7c(c6)n(C)c(=O)n7C6CCC(=O)NC6=O)C5)C4)CC3)nc21 (stereo not drawn) [Compound 107] | 
43% | 22% | 90% | 5.47 nM |  | Cn1nc(N2CCC(=O)NC2=O)c2ccc(N3CCN(Cc4cccc(S(=O)(=O)N5CCC(Nc6ncc7c(n6)N([C@@H]6CCC[C@@H](O)C6)C(=O)C76CC6)CC5)c4)CC3)cc21 [Compound 184] | 
27% | 49% | 57% | 19 nM |  | CC1CCCC1N1C(=O)C2(CC2)c2cnc(NC3CCN(S(=O)(=O)N4CCN(C(=O)CCCc5cccc6c5n(C)c(=O)n6C5CCC(=O)NC5=O)CC4)CC3)nc21 (stereo not drawn) [Compound 27] | 
31% | 34% | 62% | 6 nM |  | CC1CCCC1N1C(=O)C2(CC2)c2cnc(NC3CCN(S(=O)(=O)N4CCCN(C(=O)CCCCc5cccc6c5n(C)c(=O)n6C5CCC(=O)NC5=O)CC4)CC3)nc21 (stereo not drawn) [Compound 100] | 

Compound | CCNE1 HIBIT Protein Quantification Maximum (CCNE1) | Dmax (CDK9; 6 h) | CDK2 HIBIT Protein Quantification Maximum (CDK2) | DC50 (CDK2) | DC50 (CDK9; ABS DC50) | Dmax (CDK9)
Cn1nc(N2CCC(=O)NC2=O)c2ccc(C3CCN(Cc4cncc(S(=O)(=O)N5CCC(Nc6ncc7c(n6)N([C@H]6CCC[C@H](O)C6)C(=O)C76CC6)CC5)c4)CC3)cc21 (stereo in doubt) [Compound 161, 1-[6-(1-{[5-(4-{7′-[(1S,3S)-3-Hydroxycyclohexyl]-6′-oxospiro[cyclopropane-1,5′-pyrrolo[2,3-d]pyrimidin]-2′-ylamino}piperidin-1-ylsulfonyl)pyridin-3-yl]methyl}piperidin-4-yl)-1-methylindazol-3-yl]-1,3-diazinane-2,4-dione] | 45% |  | 79% | 6.06 nM |  | 17%

— patent publication US20260070917A1, “CYCLIN DEPENDENT KINASE DEGRADERS AND METHODS OF USE THEREOF” (Differentiated Therapeutics Inc, priority 2023, published 2026)
